In US7781445B2, “Synthesis of indenoisoquinoliniums and methods of use” (Purdue Research Foundation, priority 2005, dated 2010):
Where two headings read alike, the source gives them in different places.

What was measured:
MDA-MB-435 = assay: COMPARE screening (NCI), GI50 in MDA-MB-435
Source text: (§1) This in vitro prescreening system is based on the measurement of anticancer cytotoxicity against human cancer cell line panels consisting of approximately 60 cell lines of major human cancers (including leukemia, and slower growing tumor cells such as lung, colon, breast, skin, kidney, etc.) and is referred hereinafter as “COMPARE” screening.
(§2) COMPARE screening. The compounds described herein were examined for antiproliferative activity against the human cancer cell lines in the National Cancer Institute screen (COMPARE screening), in which the activity of each compound was evaluated with approximately 55 different cancer cell lines of diverse tumor origins. […] Therefore, the MGM value represents an overall assessment of toxicity of the compound across numerous cell lines.

[1] = system: all human cancer cell lines successfully tested (approximately 55); assay: COMPARE screening, mean graph midpoint (MGM); assay type: cell-based; conditions: average GI50 over all cell lines tested, values outside 10^-8 to 10^-4 molar taken as the limits, read-out: MGM (mean graph midpoint for growth inhibition); for MGM (mean GI50 across cell lines): Homo sapiens
Source text: as §1, §2

HOP-62 = assay: COMPARE screening (NCI), GI50 in HOP-62
Source text: as §1, §2

HCT-116 = assay: COMPARE screening (NCI), GI50 in HCT-116
Source text: as §1, §2

SF-539 = assay: COMPARE screening (NCI), GI50 in SF-539; conditions: Homo sapiens, read-out: Cytotoxicity GI50, CNS SF-539
Source text: as §1, §2

UACC-62 = assay: COMPARE screening (NCI), GI50 in UACC-62
Source text: as §1, §2

SN12C = assay: COMPARE screening (NCI), GI50 in SN12C
Source text: as §1, §2

DU-145 = assay: COMPARE screening (NCI), GI50 in DU-145
Source text: as §1, §2

topoisomerase I = target: T1, topoisomerase I (Homo sapiens, UniProt P11387); assay: Topoisomerase I-mediated DNA cleavage, 3'-end-labeled 161 bp pBluescript SK(-) fragment; assay type: biochemical; conditions: for top1-mediated DNA cleavage band at site 37 / top1-mediated DNA cleavage band at site 44: FIG. 1; for top1-mediated DNA cleavage band at site 37: cleavage site 37; for top1-mediated DNA cleavage band at site 44: cleavage site 44; for Top 1 Cleavage: tested at concentrations ranging up to 10 μM, semi-quantitative relative to compound A
T1 sequence (P11387 1-765): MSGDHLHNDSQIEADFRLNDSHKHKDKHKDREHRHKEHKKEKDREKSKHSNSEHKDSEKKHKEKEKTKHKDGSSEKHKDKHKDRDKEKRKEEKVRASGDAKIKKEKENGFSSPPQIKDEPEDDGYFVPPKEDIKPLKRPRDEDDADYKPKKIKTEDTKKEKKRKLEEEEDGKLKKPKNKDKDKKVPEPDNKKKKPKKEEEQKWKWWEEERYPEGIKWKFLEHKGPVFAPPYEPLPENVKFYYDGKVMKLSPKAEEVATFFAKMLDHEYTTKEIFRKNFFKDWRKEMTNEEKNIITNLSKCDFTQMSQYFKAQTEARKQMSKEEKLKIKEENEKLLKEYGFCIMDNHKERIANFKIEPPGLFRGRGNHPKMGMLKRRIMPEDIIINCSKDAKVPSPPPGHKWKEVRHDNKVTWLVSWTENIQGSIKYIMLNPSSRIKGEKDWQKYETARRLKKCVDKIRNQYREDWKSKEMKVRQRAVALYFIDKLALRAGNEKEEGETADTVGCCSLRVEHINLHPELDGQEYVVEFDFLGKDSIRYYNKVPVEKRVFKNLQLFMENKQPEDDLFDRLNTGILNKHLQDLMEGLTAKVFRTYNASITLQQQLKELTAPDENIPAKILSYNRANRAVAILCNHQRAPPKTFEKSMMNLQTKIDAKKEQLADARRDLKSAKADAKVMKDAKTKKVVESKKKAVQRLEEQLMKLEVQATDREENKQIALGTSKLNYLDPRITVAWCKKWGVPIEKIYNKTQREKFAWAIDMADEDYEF
Procedure: The assays were carried out at room temperature for 30 min and stopped by adding 0.5% SDS. […] Topoisomerase I was present in all reaction mixtures except for the one corresponding to the first lane.
Induction of DNA cleavage.
Labeling reactions were followed by phenol-chloroform extraction and ethanol precipitation. […] Reactions were terminated by adding 0.5% SDS.
DNA Cleavage Semiquantitative Analysis. […] The rubberband baseline correction was applied with band detection sensitivity set at 90.

OVCAR-3 = assay: COMPARE screening (NCI), GI50 in OVCAR-3
Source text: as §1, §2

[2] = Homo sapiens, HOP-62, read-out: Cytotoxicity GI50, lung HOP-62, lung, HOP-62, concentration corresponding to 50% growth inhibition
[3] = Homo sapiens, HCT-116, read-out: Cytotoxicity GI50, colon HCT-116, colon, HCT-116, concentration corresponding to 50% growth inhibition
[4] = Homo sapiens, UACC-62, read-out: Cytotoxicity GI50, melanoma UACC-62, melanoma, UACC-62, concentration corresponding to 50% growth inhibition
[5] = Homo sapiens, SN12C, read-out: Cytotoxicity GI50, renal SN12C, renal, SN12C, concentration corresponding to 50% growth inhibition
[6] = Homo sapiens, DU-145, read-out: Cytotoxicity GI50, prostate DU-145, prostate, DU-145, concentration corresponding to 50% growth inhibition
[7] = Homo sapiens, MDA-MB-435, read-out: Cytotoxicity GI50, breast MDA-MB-435, breast, MDA-MB-435, concentration corresponding to 50% growth inhibition
[8] = Homo sapiens, OVCAR-3, read-out: Cytotoxicity GI50, ovarian OVCAR-3, ovarian, OVCAR-3, concentration corresponding to 50% growth inhibition

MGM (mean GI50 across cell lines) [1] | Top 1 Cleavage (topoisomerase I; Table 1) | Compound | GI50 (HOP-62; [2]) | GI50 (HCT-116; [3]) | GI50 (SF-539) | GI50 (UACC-62; [4]) | GI50 (SN12C; [5]) | GI50 (DU-145; [6]) | GI50 (MDA-MB-435; [7]) | GI50 (OVCAR-3; [8]) | further results
 |  | COc1cc2c3c(n(C)c(=O)c2cc1OC)-c1cc2c(cc1C3=O)OCO2 [A, reference compound] |  |  |  |  |  |  |  |  | GI50 (MDA-MB-435): 96 µM; IC50 [1]: 20 µM
 |  | CC[C@@]1(O)C(=O)OCc2c1cc1n(c2=O)Cc2cc3ccccc3nc2-1 [B, camptothecin, reference compound] | 0.01 µM | 0.03 µM | 0.01 µM | 0.01 µM | 0.02 µM | 0.01 µM | 0.04 µM |  | 
 |  | COc1cc2c3c(n(CCCNCCO)c(=O)c2cc1OC)-c1cc2c(cc1C3=O)OCO2 [C, reference compound] |  |  |  |  |  |  |  |  | top1-mediated DNA cleavage band at site 37 (topoisomerase I): not seen; top1-mediated DNA cleavage band at site 44 (topoisomerase I): observed
 |  | COc1cc2c[n+](CCCN)c3c(c2cc1OC)C(=O)c1cc2c(cc1-3)OCO2 [Compound 7ab, 6-(3-Amino-1-propyl)-2,3-dimethoxy-8,9-(methylenedioxy)-1′-oxo-indeno[1,2-c]isoquinolinium Chloride] |  |  |  |  |  |  |  |  | IC50 [1]: 0.167 µM
44.7 µM | ++ (++, similar activity as compound A) | COc1cc2c(cc1OC)-c1ncc3cc(OC)c(OC)cc3c1C2.Cl [Compound 9aa, 2,3,8,9-Tetramethoxy-11H-indeno[1,2-c]isoquinoline Hydrochloride] |  | > 50 µM | > 50 µM | > 50 µM | > 50 µM | > 50 µM | > 50 µM | > 50 µM | top1-mediated DNA cleavage band at site 37 (topoisomerase I): not seen; top1-mediated DNA cleavage band at site 44 (topoisomerase I): observed
0.272 µM | ++ (++, similar activity as compound A) | Cl.c1c2c(cc3c1OCO3)-c1ncc3cc4c(cc3c1C2)OCO4 [Compound 9bb, 2,3-Methylenedioxy-8,9-methylenedioxy-11H-indeno[1,2-c]isoquinoline Hydrochloride] | 0.227 µM | 0.283 µM | 0.598 µM | 0.19 µM | 0.0414 µM |  | < 0.01 µM | 0.0232 µM | 
20.9 µM | 0 (0, no activity) | COc1cc2c(c(OC)c1OC)-c1ncc3cc4c(cc3c1C2)OCO4.Cl [Compound 9bc, 7,8,9-Trimethoxy-2,3-methylenedioxy-11H-indeno[1,2-c]isoquinoline Hydrochloride] | 21.7 µM | 18.8 µM |  | 19.3 µM | 13.4 µM | 23.2 µM | 13.2 µM | 15.5 µM | 
19.1 µM |  | COc1cc2c(cc1OC)-c1ncc3cc(OC)c(OC)c(OC)c3c1C2.Cl [Compound 9ca, 1,2,3,8,9-Pentamethoxy-11H-indeno[1,2-c]isoquinoline Hydrochloride] | 34.8 µM | 31.8 µM | 14 µM | 7.42 µM | 14.4 µM | 21.7 µM | 16.2 µM | 15.9 µM | Top 1 Cleavage (topoisomerase I; Table 2): + (+, weak activity)
24 µM |  | COc1cc2c(c(OC)c1OC)-c1ncc3cc(OC)c(OC)c(OC)c3c1C2.Cl [Compound 9cc, 1,2,3,7,8,9-Hexamethoxy-11H-indeno[1,2-c]isoquinoline Hydrochloride] | 35.4 µM | 33.5 µM |  | 17.4 µM | 17.6 µM | 26.6 µM | 20.8 µM | 19.1 µM | Top 1 Cleavage (topoisomerase I; Table 2, Hydrochloride): 0 (0, no activity)
24.5 µM |  | COc1ccc(OC)c2c3c(ncc12)-c1cc2c(cc1C3)OCO2.Cl [Compound 9db, 1,4-Dimethoxy-8,9-methylenedioxy-11H-indeno[1,2-c]isoquinoline Hydrochloride] | < 0.01 µM | 0.249 µM |  | > 100 µM | > 100 µM | 48.4 µM | > 100 µM | 26.9 µM | Top 1 Cleavage (topoisomerase I; Table 2): ++ (++, similar activity as compound A)
13.2 µM |  | COc1ccc2c(c1OC)-c1ncc3cc(OC)c(OC)c(OC)c3c1C2.Cl [Compound 9ea, 1,2,3,7,8-Pentamethoxy-11H-indeno[1,2-c]isoquinoline Hydrochloride] | 16 µM | 8.81 µM |  | 3.84 µM |  |  |  | 0.529 µM | Top 1 Cleavage (topoisomerase I; Table 2): ++ (++, similar activity as compound A)
26.3 µM |  | COc1cc2cnc3c(c2c(OC)c1OC)Cc1ccc2c(c1-3)OCO2.Cl [Compound 9eb, 1,2,3-Trimethoxy-7,8-methylenedioxy-11H-indeno[1,2-c]isoquinoline Hydrochloride] |  | 22.1 µM |  | 22.4 µM |  | 26.9 µM | > 100 µM |  | Top 1 Cleavage (topoisomerase I; Table 2): ++ (++, similar activity as compound A)
 |  | COc1cc2c(c(OC)c1OC)-c1ncc3cc(OC)c(OC)c(OC)c3c1C2.Cl [Compound 9ec, 1,2,3,7,8,9-Hexamethoxy-11H-indeno[1,2-c]isoquinoline Hydrochloride] |  |  |  |  |  |  |  |  | GI50 (HOP-62; human): 28.5 µM; GI50 (HCT-116; human): 27.8 µM; GI50 (UACC-62; human): 21.1 µM; GI50 (OVCAR-3; human): 21.5 µM; GI50 (SN12C; human): 20.3 µM; GI50 (DU-145; human): 29.6 µM; GI50 (MDA-MB-435; human): 23 µM; IC50 ([1]; Hydrochloride): 26.3 µM; Top 1 Cleavage (topoisomerase I; Table 2, Hydrochloride): ++ (++, similar activity as compound A)

Compound | MGM (mean GI50 across cell lines) [1] | Top 1 Cleavage (topoisomerase I; Table 1) | GI50 (HOP-62; [2]) | GI50 (HCT-116; [3]) | GI50 (SF-539) | GI50 (UACC-62; [4]) | GI50 (SN12C; [5]) | GI50 (DU-145; [6]) | GI50 (MDA-MB-435; [7]) | GI50 (OVCAR-3; [8]) | further results
COC1=C(OC)Cc2c3c(ncc2=C1)=c1cc2c(cc1=C3)OCO2.Cl [Compound 9ab, 2,3-Dimethoxy-8,9-methylenedioxy-1H-indeno[1,2-c]isoquinoline Hydrochloride] | 0.0505 µM | +++ (+++ and ++++, greater activity than compound A) | 0.0721 µM | > 100 µM | < 0.01 µM | < 0.01 µM | > 100 µM | 0.0281 µM | < 0.01 µM |  | top1-mediated DNA cleavage band at site 37 (topoisomerase I): not seen; top1-mediated DNA cleavage band at site 44 (topoisomerase I): observed
COc1cc2c(cc1OC)-c1ncc3cc4c(cc3c1C2)OCO4.Cl [Compound 9ba, 8,9-Dimethoxy-2,3-methylenedioxy-11H-indeno [1,2-c]isoquinoline hydrochloride] | 33.9 µM | +++ (+++ and ++++, greater activity than compound A) |  | 11.1 µM | 23.4 µM | > 100 µM | > 100 µM | 25.3 µM | 63.4 µM | 61.2 µM | top1-mediated DNA cleavage band at site 37 (topoisomerase I): not seen; top1-mediated DNA cleavage band at site 44 (topoisomerase I): observed
